Common to all, as to assay type: biochemical
For test [1], the target named is T1, JAK1 (Homo sapiens, UniProt P23458).
T1 construct: made in house; host or cells: SF9 insect cells (baculovirus)
Nature of the test: JAK1 inhibition (Table 4). Particulars: read-out: JAK1 Ki.

The target of test [2] is T2, TYK2 (Homo sapiens, UniProt P29597).
T2 construct: made in house; host or cells: SF9 insect cells (baculovirus)
T2 sequence (P29597 873-1187): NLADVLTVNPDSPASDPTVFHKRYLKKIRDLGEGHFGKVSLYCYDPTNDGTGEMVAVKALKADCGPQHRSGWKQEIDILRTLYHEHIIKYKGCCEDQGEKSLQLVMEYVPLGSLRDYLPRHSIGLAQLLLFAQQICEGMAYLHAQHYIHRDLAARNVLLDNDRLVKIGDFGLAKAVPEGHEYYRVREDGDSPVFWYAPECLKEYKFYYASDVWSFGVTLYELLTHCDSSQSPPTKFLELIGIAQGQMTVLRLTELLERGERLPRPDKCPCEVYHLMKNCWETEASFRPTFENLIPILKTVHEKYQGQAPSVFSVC
Nature of the test: TYK2 inhibition (Table 4).

The target in test [3] is T3, JAK2 (Homo sapiens, UniProt O60674).
T3 construct: made in house; host or cells: SF9 insect cells (baculovirus)
Briefly: JAK2 inhibition (Table 4). Particulars: read-out: JAK2 Ki.

The target in test [4] is T4, JAK3 (Homo sapiens, UniProt P52333).
T4 construct: made in house; host or cells: SF9 insect cells (baculovirus)
Nature of the test: JAK3 inhibition (Table 4). The following applies: read-out: JAK3 Ki.

Where a name gives a salt, the structure may show the parent alone.

T3 sequence (O60674 812-1132): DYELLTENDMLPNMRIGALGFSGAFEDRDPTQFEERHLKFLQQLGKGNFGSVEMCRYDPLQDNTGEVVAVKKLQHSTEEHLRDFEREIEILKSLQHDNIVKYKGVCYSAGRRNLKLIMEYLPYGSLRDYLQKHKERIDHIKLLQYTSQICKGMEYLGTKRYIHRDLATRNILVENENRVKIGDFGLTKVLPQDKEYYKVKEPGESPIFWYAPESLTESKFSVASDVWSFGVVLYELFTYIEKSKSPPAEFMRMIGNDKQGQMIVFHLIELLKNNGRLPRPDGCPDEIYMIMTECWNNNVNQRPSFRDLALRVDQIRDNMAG
T1 sequence (P23458 852-1154): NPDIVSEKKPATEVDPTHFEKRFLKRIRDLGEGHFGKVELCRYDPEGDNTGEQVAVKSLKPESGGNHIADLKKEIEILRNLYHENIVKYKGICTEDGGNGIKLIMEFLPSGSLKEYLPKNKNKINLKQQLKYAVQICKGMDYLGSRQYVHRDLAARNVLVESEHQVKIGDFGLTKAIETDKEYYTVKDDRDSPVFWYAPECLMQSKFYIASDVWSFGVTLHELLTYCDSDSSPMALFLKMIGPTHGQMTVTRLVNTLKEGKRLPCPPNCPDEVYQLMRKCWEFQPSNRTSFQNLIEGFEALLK
T4 sequence (P52333 783-1124): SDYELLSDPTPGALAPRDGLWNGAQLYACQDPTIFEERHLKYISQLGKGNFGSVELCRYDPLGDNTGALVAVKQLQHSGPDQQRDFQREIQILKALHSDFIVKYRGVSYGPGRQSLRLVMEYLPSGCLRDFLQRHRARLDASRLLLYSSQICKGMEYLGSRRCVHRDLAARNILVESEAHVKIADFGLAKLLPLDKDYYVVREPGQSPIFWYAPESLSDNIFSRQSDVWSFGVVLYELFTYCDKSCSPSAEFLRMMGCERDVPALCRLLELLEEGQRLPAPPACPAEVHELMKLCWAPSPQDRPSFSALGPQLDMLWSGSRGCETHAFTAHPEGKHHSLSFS

For orientation: Ki means the dissociation constant of the complex between target and ligand, obtained from inhibition or displacement. As to `Cc1nc2cnc3[nH]ccc3c2n1[C@H]1CC[C@H](N2CCC(O)C2)CC1` (mixture of isomers) [Example 597, Racemic trans 1-[4-(2-Methyl-6H-1,2,3,5,6-tetraaza-as-indacen-1-yl)-cyclohexyl]-pyrrolidin-3-ol], the inhibition constant (Ki) stood at 30.8 nM in test [1], 497 nM in test [2], 126 nM in test [3] and 823 nM in test [4].

With `COCCNC1CCC(n2nnc3cnc4[nH]ccc4c32)C1` (racemic) [Example 618, Racemic trans (2-methoxy-ethyl)-[3-(6H-1,2,3,5,6-pentaaza-as-indacen-1-yl)-cyclopentyl]-amine hydrochloride], the Ki came out at 138 nM in test [1], 1440 nM in test [2], 446 nM in test [3] and 942 nM in test [4].

Regarding `O=C(NC1CCC(n2nnc3cnc4[nH]ccc4c32)C1)OCC(F)(F)F` (racemic) [Example 620, Racemic trans [3-(6H-1,2,3,5,6-Pentaaza-as-indacen-1-yl)-cyclopentyl]-carbamic acid 2,2,2-trifluoro-ethyl ester], the Ki was 1.64 nM in test [1], 91.4 nM in test [2], 8.15 nM in test [3] and 20.5 nM in test [4].

For the compound `COC(=O)NC1CCC(n2nnc3cnc4[nH]ccc4c32)C1` (racemic) [Example 621, Racemic trans [3-(6H-1,2,3,5,6-Pentaaza-as-indacen-1-yl)-cyclopentyl]-carbamic acid methyl ester], the inhibition constant (Ki) in test [1] was found to be 8.78 nM; in test [2], 124 nM; in test [3], 23.2 nM; in test [4], 148 nM.

Take `CN(CC(F)(F)F)C(=O)NC1CCC(n2nnc3cnc4[nH]ccc4c32)C1` (racemic) [Example 622, Racemic trans 1-Methyl-3-[3-(6H-1,2,3,5,6-pentaaza-as-indacen-1-yl)-cyclopentyl]-1-(2,2,2-trifluoro-ethyl)-urea]: the Ki in test [1] was determined as 9 nM; in test [2] it was 233 nM; in test [3] it was 12.4 nM; in test [4] it was 19.5 nM.

Consider `Cc1nc2cnc3[nH]ccc3c2n1C1CCC(NCC(F)(F)F)C1` (racemic) [Example 626, Racemic trans [3-(2-Methyl-6H-1,2,3,5,6-tetraaza-as-indacen-1-yl)-cyclopentyl]-(2,2,2-trifluoro-ethyl)-amine], for which the Ki in test [1] was found to be 2.04 nM; in test [2], 9.38 nM; in test [3] it was 6.4 nM; in test [4], 33.7 nM.

Consider `Cc1nc2cnc3[nH]ccc3c2n1C1CCC(NCCC#N)C1` (racemic) [Example 627, Racemic trans 3-[3-(2-methyl-6H-1,2,3,5,6-tetraaza-as-indacen-1-yl)-cyclopentylamino]-propionitrile], for which the Ki was 1.36 nM in test [1], 12.7 nM in test [2], 5.91 nM in test [3] and 14 nM in test [4].

`COCCNC1CCC(n2c(C)nc3cnc4[nH]ccc4c32)C1` (racemic) [Example 628, Racemic trans (2-methoxy-ethyl)-[3-(2-methyl-6H-1,2,3,5,6-tetraaza-as-indacen-1-yl)-cyclopentyl]-amine]: the Ki came to 43.1 nM in test [1], 974 nM in test [2], 375 nM in test [3] and 798 nM in test [4].

Regarding `N#CCC(=O)NC1CCC(n2cnc3cnc4[nH]ccc4c32)C1` (racemic) [Example 629, Racemic trans 2-cyano-N-[3-(6H-1,2,3,5,6-tetraaza-as-indacen-1-yl)-cyclopentyl]-acetamide], the inhibition constant (Ki) in test [1] stood at 1.36 nM; in test [2] it was 32 nM; in test [3], 4.99 nM; in test [4], 11 nM.

For the compound `CS(=O)(=O)NC1CCC(n2cnc3cnc4[nH]ccc4c32)C1` (racemic) [Example 630, Racemic trans N-[3-(6H-1,2,3,5,6-tetraaza-as-indacen-1-yl)-cyclopentyl]-methanesulfonamide], the inhibition constant (Ki) was 2.59 nM in test [1], 25.8 nM in test [2], 6.62 nM in test [3] and 18.4 nM in test [4].

The values are drawn from US8461328B2, “Tricyclic heterocyclic compounds, compositions and methods of use thereof” (Genentech, Inc., priority 2010, dated 2013).
